Data: patent publication US11884750B2, “Cationic cell penetrating peptides and the use thereof” (CELLTROY CO., LTD., priority 2021, dated 2024)
“Also recorded” adds a separate entry of the source.

How the values were obtained:
SNU-46 cell line = experiment: Cell penetration efficiency using laryngeal cells; type: cell-based; conditions: SNU-46 laryngeal cells, 4 μM FITC-conjugated CPP, one hour
Description: (§1) Subsequently, to confirm whether the CPPs according to the present invention show excellent cell permeability into different types of cells/tissues, various tissue-derived cells were treated with biologically active molecule-conjugated CPPs to compare its delivery capacity with TAT. As in the previous examples, each cell was aliquoted in a plate at an appropriate density, and cultured in a 10% FBS-added medium under a condition of 37° C. and 5% CO2 for 24 hours. Subsequently, the cells were treated with 4 μM each of FITC-conjugated CPP or FITC-conjugated TAT and incubated for one hour. After the completion of the incubation, the cells were transferred to a sterile tube using 0.25% trypsin and centrifuged to remove the medium. Afterward, the cells were washed with 500 μL of D-PBS twice to completely remove the medium, and finally, resuspended in 400 μL of D-PBS and intracellular fluorescence was measured by flow cytometry (FACSCanto II).

A-427 cell line = experiment: Cell penetration efficiency using lung cells; type: cell-based; conditions: A-427 lung cells, 4 μM FITC-conjugated CPP, one hour
Description: as §1

HeLa cell line = experiment: Cell penetration efficiency using cervical cancer cells; type: cell-based; conditions: 4 μM FITC-conjugated CPP, one hour
Description: as §1

HEK293T cell line = experiment: Cell penetration efficiency using kidney cells; type: cell-based; conditions: 4 μM FITC-conjugated CPP, one hour
Description: as §1

HepG2 cell line = experiment: Cell penetration efficiency using liver cells; type: cell-based; conditions: 4 μM FITC-conjugated CPP, one hour
Description: as §1

HDF cell line = experiment: Cell penetration efficiency in skin cells (HDF); type: cell-based; conditions: 4 μM FITC-conjugated CPP, one hour
Description: as §1

HT1080 cell line = experiment: Cell penetration efficiency using connective tissue (fibrosarcoma) cells; type: cell-based; conditions: 4 μM FITC-conjugated CPP, one hour
Description: as §1

HGB cell line = experiment: Cell penetration efficiency in glioblastoma cells; type: cell-based, human; conditions: 4 μM FITC-conjugated CPP, one hour
Description: as §1

HaCAT cells = experiment: Cell penetration efficiency in human epidermal (skin) cells, 4 μM, flow cytometry; type: cell-based; conditions: 4 μM FITC-conjugated CPP, one hour
Description: The cell penetration efficiency of the cationic CPPs selected in Example 1 was evaluated using human epidermal cells. In further detail, HaCAT cells, which is a human epidermal cell line, were seeded in 24-well plates to have a cell density of 1×10^7 cells/well, and cultured in 10% FBS-added DMEM under conditions of 37° C. and 5% CO2 for 24 hours. Subsequently, the cells were treated 4 μM each of the FITC-conjugated CPP or FITC-conjugated TAT, and incubated for one hour. After the termination of the incubation, the cells were transferred to a sterile tube using 0.25% trypsin, and the medium was removed through centrifugation. Afterward, the cells were washed with 500 μL of D-PBS twice to completely remove the medium, and finally, resuspended in 400 μL of D-PBS and intracellular fluorescence was measured by flow cytometry (FACSCanto II).
(§2) To evaluate the cell penetration efficiency of the additionally selected cationic CPPs, an experiment was conducted using human epidermal cells or human neuroblastoma cells. In further detail, HaCAT cells, which is a human epidermal cell line, or SH-SYSY cells, which is a human neuroblastoma cell line, were seeded in 24-well plates to have a cell density of 1×10^7 cells/well and cultured in 10% FBS-added DMEM under conditions of 37° C. and 5% CO2 for 24 hours. In addition, the cells were treated with 4 μM each of FITC-conjugated peptides and FITC-conjugated TAT for one hour. After the completion of the culture, the cells were transferred to a sterile tube using 0.25% trypsin and centrifuged to remove the medium. Afterward, the cells were washed with 500 μL of D-PBS twice to completely remove the medium, and finally, resuspended in 400 μL of D-PBS and intracellular fluorescence was measured by flow cytometry (FACSCanto II).
as §1

monocytes = experiment: Cell penetration efficiency using monocytes; type: cell-based; conditions: 4 μM FITC-conjugated CPP, one hour
Description: as §1

SH-SY5Y cells = experiment: Cell penetration efficiency in human neuroblastoma cells, 4 μM, flow cytometry; type: cell-based; conditions: one hour; for cell permeability compared with TAT: 4 μM FITC-conjugated CPP, flow cytometry; for Score / Score/TAT: 4 μM FITC-conjugated peptide; for Score: intracellular fluorescence by flow cytometry; for Score/TAT: ratio to FITC-conjugated TAT
Description: The cell penetration efficiency of the cationic CPPs selected in Example 1 was evaluated in neuroblastoma. In further detail, SH-SYSY cells, which is a human neuroblastoma cell line, were seeded in 24-well plates to have a cell density of 1×10^7 cells/well, and cultured in 10% FBS-added DMEM under conditions of 37° C. and 5% CO2 for 24 hours. In addition, the cells were treated with 4 μM each of FITC-conjugated CPPs (C12, C14, C16, C31, C52, and C67), or FITC-conjugated TAT, and incubated for one hour. After the termination of the incubation, the cells were transferred to a sterile tube using 0.25% trypsin and centrifuged to remove the medium. Afterward, the cells were washed with 500 μL of D-PBS twice to completely remove the medium, and finally, resuspended in 400 μL of D-PBS and intracellular fluorescence was measured by flow cytometry (FACSCanto II).
as §2, §1

macrophages = experiment: Cell penetration efficiency using macrophages; type: cell-based; conditions: macrophages differentiated from THP1 cells, 4 μM FITC-conjugated CPP, one hour
Description: as §1, with “II). Macrophages were used by inducing differentiation from THP1 cells. Specifically, the THP-1 cells were aliquoted on a cover glass laid on a 24-well plate to have a density of 6×10^4 cells/well, and after the addition of 100 ng/mL of phorbol 12-myristate 13-acetate (PMA), the cells were incubated for 48 hours to induce the differentiation into macrophages. After 48 hours, the cells were washed with Dulbecco's phosphate buffered saline (DPBS) to perform an experiment.” for “II).”

Sequence | cell permeability compared with TAT (SNU-46 cell line) | cell permeability compared with TAT (A-427 cell line) | cell permeability compared with TAT (HeLa cell line) | cell permeability compared with TAT (HEK293T cell line) | cell permeability compared with TAT (HepG2 cell line) | cell permeability compared with TAT (HDF cell line) | cell permeability compared with TAT (HT1080 cell line) | cell permeability compared with TAT (HGB cell line) | cell permeability compared with TAT (HaCAT cells) | cell permeability compared with TAT (monocytes) | cell permeability compared with TAT (SH-SY5Y cells) | Score (SH-SY5Y cells) | Score/TAT (SH-SY5Y cells) | cell permeability compared with TAT (macrophages)
ARLRVILRRRNPKR [C93] | higher cell permeability | higher cell permeability | higher cell permeability | higher cell permeability | higher cell permeability | higher cell permeability | higher cell permeability | higher cell permeability | higher cell permeability | higher cell permeability | higher cell permeability | 1798 | 3.464 | –
IPLRRLMRRARRHR [C112] | higher cell permeability | – | higher cell permeability | – | higher cell permeability | higher cell permeability | – | higher cell permeability | higher cell permeability | higher cell permeability | higher cell permeability | 946 | 1.823 | higher cell permeability
IRAKKKKRRRKKKP [C31] | higher cell permeability | higher cell permeability | higher cell permeability | higher cell permeability | higher cell permeability | higher cell permeability | higher cell permeability | – | increased cell permeability; also recorded: higher cell permeability | – | higher cell permeability | 998 | 1.923 | higher cell permeability
KPRKKKKKRKNKKI [C12] | higher cell permeability | higher cell permeability | higher cell permeability | higher cell permeability | higher cell permeability | higher cell permeability | higher cell permeability | higher cell permeability | increased cell permeability | – | higher cell permeability | 2062 | 3.973 | higher cell permeability
MPKIRKLKRRKKFR [C79] | higher cell permeability | – | higher cell permeability | – | higher cell permeability | higher cell permeability | higher cell permeability | higher cell permeability | higher cell permeability | higher cell permeability | higher cell permeability | 863 | 1.663 | –
RPRRKKQIKRLCKR [C16] | higher cell permeability | higher cell permeability | higher cell permeability | higher cell permeability | higher cell permeability | higher cell permeability | higher cell permeability | higher cell permeability | increased cell permeability; also recorded: higher cell permeability | – | higher cell permeability | 1680 | 3.237 | higher cell permeability
SRRRLRRFLRRIAP [C185] | higher cell permeability | – | higher cell permeability | higher cell permeability | higher cell permeability | higher cell permeability | – | higher cell permeability | higher cell permeability | higher cell permeability | higher cell permeability | 1684 | 3.245 | higher cell permeability
TKRRKRRLRRRLTP [C52] | higher cell permeability | higher cell permeability | higher cell permeability | higher cell permeability | higher cell permeability | higher cell permeability | higher cell permeability | – | increased cell permeability; also recorded: higher cell permeability | – | higher cell permeability | 1328 | 2.559 | higher cell permeability
